How the values were obtained:
SAPK2a(h) = SAPK2a(h) (Homo sapiens, UniProt Q16539); test: Kinase panel, residual kinase activity at 1 μM inhibitor; assay type: biochemical
Description: (§1) In this table, residual kinase activity in the presence of 1 μM of each inhibitor is illustrated as a percentage of maximal activity.

Flt3(h) = Flt3(h) (Homo sapiens, UniProt P36888); test: as above; assay type: biochemical
Description: as §1

Pim-3(h) = Pim-3(h) (Homo sapiens, UniProt Q86V86); test: as above; assay type: biochemical
Description: as §1

IGF-1R(h) = IGF-1R(h) (Homo sapiens, UniProt P08069); test: as above; assay type: biochemical
Description: as §1

Pim-1(h) = Pim-1(h) (Homo sapiens, UniProt P11309); test: as above; assay type: biochemical
Description: as §1

MAPK2(h) = MAPK2(h) (Homo sapiens, UniProt P28482); test: as above; assay type: biochemical
Description: as §1

CaMKIIβ(h) = CaMKIIβ(h) (Homo sapiens, UniProt Q13554); test: as above; assay type: biochemical
Description: as §1

CaMKIIα(h) = CaMKIIα(h) (Homo sapiens, UniProt Q9UQM7); test: as above; assay type: biochemical
Description: as §1

PKCα(h) = PKCα(h) (Homo sapiens, UniProt P17252); test: as above; assay type: biochemical
Description: as §1

[1] = molecular target: PI3 Kinase (p110a/p85a)(h) (Homo sapiens, UniProt P42336); test: as above; assay type: biochemical
Description: as §1

Ret(h) = Ret(h) (Homo sapiens, UniProt P07949); test: as above; assay type: biochemical
Description: as §1

p70S6K(h) = p70S6K(h) (Homo sapiens, UniProt P23443); test: as above; assay type: biochemical
Description: as §1

PAK2(h) = PAK2(h) (Homo sapiens, UniProt Q13177); test: as above; assay type: biochemical
Description: as §1

MAPK1(h) = MAPK1(h) (Homo sapiens, UniProt P27361); test: as above; assay type: biochemical
Description: as §1

CaMKIV(h) = CaMKIV(h) (Homo sapiens, UniProt Q16566); test: as above; assay type: biochemical
Description: as §1

Aurora-C(h) = Aurora-C(h) (Homo sapiens, UniProt Q9UQB9); test: as above; assay type: biochemical
Description: as §1

[2] = system: LTP in CaMKIIα knockout slices; test: LTP induction in slices of CaMKIIα knockout mice injected with AAV-mScarlet (mock) or AAV-mScarlet-CaMKII F89G; assay type: cell-based, mouse
Description: Specifically, in one exemplary method, pharmacogenetic rescue of LTP with NM-PP1 was tested in hippocampal slices expressing the CaMKII F89G mutant. For this purpose, mScarlet-labeled CaMKII F89G mutant were re-expressed in the hippocampal CA1 region of CaMKIIα knockout mice. This was done by stereotactic injection of a packaged adeno-associated virus (AAV) construct in which the expression of either mScarlet alone or the mScarlet-labeled mutant CaMKII is controlled by the CaMKIIα promoter (FIG. 5A). After 5 weeks of expression, acute slices were prepared and evaluated for proper localization of expression by imaging of mScarlet fluorescence (FIG. 5A and FIG. 11A). […] As expected, NM-PP1 had no effect on the residual LTP in these control slices (FIGS. 5B-5C and FIG. 11B). By contrast, in slices expressing the CaMKII F89G mutant, LTP was completely abolished (FIGS. 5D-5E), consistent with residual LTP being further suppressed by the dominant negative effect (on the remaining minor CaMKIIβ isoform in the CaMKIIα knockout) that is exerted by a CaMKII mutant with impaired ATP-binding and thereby is deficient in both activity and GluN2B binding. […] Thus, two independent lines of pharmacogenetic evidence topple current dogma by directly supporting the conclusion that LTP induction is linked to structural rather than enzymatic functions of CaMKII.
AAV Production. […]

SAPK2a(h), sequence (Q16539 whole entry): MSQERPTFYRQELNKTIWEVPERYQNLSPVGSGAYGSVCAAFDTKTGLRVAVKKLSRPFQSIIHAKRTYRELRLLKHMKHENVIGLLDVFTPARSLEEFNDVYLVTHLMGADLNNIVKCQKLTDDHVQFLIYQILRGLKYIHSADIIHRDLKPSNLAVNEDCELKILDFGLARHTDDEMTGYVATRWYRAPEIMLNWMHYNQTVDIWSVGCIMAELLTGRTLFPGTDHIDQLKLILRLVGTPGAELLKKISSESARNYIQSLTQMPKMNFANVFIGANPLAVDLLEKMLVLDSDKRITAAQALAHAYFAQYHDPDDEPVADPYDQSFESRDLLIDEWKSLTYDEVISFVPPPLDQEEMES
CaMKIIβ(h), sequence (Q13554 whole entry): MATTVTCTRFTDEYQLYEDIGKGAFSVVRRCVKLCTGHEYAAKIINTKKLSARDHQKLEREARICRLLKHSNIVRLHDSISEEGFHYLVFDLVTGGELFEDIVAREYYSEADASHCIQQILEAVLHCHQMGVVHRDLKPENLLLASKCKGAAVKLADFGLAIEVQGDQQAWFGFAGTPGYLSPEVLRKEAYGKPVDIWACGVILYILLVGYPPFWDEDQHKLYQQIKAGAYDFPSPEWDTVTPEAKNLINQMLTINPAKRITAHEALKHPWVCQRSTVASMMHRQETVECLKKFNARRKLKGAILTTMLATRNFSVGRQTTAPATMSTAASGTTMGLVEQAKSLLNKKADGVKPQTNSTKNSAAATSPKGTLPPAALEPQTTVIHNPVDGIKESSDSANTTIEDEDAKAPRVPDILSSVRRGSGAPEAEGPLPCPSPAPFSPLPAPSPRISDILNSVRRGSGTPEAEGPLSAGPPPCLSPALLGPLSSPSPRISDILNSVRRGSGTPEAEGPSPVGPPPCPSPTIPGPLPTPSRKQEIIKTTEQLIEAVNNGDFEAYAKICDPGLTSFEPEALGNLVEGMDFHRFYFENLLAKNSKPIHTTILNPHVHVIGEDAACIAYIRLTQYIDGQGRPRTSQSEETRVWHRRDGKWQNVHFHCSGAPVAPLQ
PI3 Kinase (p110a/p85a)(h), sequence (P42336 whole entry): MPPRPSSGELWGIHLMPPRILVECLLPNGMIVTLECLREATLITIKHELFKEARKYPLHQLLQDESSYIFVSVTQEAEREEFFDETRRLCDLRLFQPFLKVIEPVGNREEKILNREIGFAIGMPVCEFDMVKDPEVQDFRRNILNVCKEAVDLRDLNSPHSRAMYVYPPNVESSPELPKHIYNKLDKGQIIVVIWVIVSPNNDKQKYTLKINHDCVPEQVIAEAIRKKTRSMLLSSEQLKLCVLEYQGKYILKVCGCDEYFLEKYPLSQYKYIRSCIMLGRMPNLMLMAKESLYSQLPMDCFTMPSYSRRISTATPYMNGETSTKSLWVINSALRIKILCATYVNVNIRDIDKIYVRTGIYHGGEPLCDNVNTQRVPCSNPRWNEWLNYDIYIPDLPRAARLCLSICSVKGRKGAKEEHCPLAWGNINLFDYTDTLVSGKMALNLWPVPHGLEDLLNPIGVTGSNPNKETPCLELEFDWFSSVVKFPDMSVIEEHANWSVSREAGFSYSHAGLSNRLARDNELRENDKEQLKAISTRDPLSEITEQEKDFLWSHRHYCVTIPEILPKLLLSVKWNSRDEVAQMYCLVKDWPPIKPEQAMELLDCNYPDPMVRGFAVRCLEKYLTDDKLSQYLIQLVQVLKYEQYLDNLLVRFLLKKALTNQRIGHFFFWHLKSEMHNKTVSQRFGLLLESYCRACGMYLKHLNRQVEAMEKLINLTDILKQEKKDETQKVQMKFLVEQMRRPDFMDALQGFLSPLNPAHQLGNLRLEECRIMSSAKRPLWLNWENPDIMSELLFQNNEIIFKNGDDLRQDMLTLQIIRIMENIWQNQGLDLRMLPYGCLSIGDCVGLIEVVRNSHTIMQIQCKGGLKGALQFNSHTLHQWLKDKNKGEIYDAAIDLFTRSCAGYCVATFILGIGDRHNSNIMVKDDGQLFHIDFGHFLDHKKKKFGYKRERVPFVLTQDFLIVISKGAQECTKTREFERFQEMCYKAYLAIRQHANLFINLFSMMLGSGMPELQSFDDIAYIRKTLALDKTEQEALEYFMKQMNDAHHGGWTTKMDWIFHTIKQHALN
PI3 Kinase (p110a/p85a)(h), sequence (P27986 whole entry partner): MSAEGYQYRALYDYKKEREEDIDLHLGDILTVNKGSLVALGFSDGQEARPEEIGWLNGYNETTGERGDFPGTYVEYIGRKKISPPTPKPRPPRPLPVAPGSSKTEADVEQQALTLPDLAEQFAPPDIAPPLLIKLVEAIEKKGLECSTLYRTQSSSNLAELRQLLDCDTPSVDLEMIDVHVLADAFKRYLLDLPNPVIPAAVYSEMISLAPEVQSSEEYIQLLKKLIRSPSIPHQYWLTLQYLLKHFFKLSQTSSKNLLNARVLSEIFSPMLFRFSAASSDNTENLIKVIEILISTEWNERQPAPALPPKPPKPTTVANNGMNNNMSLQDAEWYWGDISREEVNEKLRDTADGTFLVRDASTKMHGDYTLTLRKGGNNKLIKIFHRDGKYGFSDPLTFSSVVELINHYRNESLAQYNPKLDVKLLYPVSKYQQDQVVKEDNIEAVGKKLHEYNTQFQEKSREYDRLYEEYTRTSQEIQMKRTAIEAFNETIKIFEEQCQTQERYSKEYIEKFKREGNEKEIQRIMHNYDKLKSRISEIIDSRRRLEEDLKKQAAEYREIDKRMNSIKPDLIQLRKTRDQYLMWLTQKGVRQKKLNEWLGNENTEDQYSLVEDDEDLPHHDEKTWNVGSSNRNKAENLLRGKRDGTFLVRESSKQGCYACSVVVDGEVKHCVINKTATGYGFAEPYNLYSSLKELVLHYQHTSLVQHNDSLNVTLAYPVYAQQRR
PAK2(h), sequence (Q13177 whole entry): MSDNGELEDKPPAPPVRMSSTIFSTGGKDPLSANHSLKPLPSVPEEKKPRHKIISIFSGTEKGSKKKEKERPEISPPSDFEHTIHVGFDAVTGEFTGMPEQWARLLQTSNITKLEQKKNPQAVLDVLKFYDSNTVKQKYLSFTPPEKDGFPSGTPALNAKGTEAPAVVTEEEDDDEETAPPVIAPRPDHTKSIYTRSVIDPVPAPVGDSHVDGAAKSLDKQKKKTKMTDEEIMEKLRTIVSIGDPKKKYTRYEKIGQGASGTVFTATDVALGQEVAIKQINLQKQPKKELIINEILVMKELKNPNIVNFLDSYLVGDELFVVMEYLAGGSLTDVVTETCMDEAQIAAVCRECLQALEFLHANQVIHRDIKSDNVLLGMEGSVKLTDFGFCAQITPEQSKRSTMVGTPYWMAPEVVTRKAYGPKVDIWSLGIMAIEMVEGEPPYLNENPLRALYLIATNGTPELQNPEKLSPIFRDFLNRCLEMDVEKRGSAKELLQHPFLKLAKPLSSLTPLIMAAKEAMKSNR
CaMKIIα(h), sequence (Q9UQM7 whole entry): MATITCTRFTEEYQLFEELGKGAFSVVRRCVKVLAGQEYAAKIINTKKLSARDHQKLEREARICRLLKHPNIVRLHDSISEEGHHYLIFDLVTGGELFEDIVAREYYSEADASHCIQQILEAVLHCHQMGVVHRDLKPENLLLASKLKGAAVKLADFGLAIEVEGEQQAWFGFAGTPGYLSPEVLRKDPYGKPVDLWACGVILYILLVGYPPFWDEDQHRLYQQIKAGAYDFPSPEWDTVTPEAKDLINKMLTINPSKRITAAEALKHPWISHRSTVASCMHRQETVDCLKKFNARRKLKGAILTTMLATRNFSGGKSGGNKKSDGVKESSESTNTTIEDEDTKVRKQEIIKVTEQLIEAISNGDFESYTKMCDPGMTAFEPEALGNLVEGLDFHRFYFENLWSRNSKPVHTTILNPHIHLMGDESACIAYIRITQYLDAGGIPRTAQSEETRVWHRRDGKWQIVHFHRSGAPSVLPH

| Structure (SMILES) | residual kinase activity, SAPK2a(h) (SAPK2a(h)) | residual kinase activity, Flt3(h) (Flt3(h)) | residual kinase activity, Pim-3(h) (Pim-3(h)) | residual kinase activity, IGF-1R(h) (IGF-1R(h)) | residual kinase activity, Pim-1(h) (Pim-1(h)) | residual kinase activity, MAPK2(h) (MAPK2(h)) | residual kinase activity, CaMKIIβ(h) (CaMKIIβ(h)) | residual kinase activity, CaMKIIα(h) (CaMKIIα(h)) | residual kinase activity, PKCα(h) (PKCα(h)) | residual kinase activity, PI3 Kinase (p110a/p85a)(h) [1] | residual kinase activity, Ret(h) (Ret(h)) | residual kinase activity, p70S6K(h) (p70S6K(h)) | residual kinase activity, PAK2(h) (PAK2(h)) | residual kinase activity, MAPK1(h) (MAPK1(h)) | residual kinase activity, CaMKIV(h) (CaMKIV(h)) | residual kinase activity, Aurora-C(h) (Aurora-C(h)) | residual LTP in CaMKIIα knockout slices expressing mScarlet control ([2]; NM-PP1) | LTP induction in CaMKIIα knockout slices expressing CaMKII F89G ([2]; NM-PP1 10 μM) |
| --- | --- | --- | --- | --- | --- | --- | --- | --- | --- | --- | --- | --- | --- | --- | --- | --- | --- | --- |
| NCCNc1cccc(-c2ccnc3[nH]c4ccccc4c23)c1 [AS283] | 95 percentage of maximal activity | 3 percentage of maximal activity | 97 percentage of maximal activity | 110 percentage of maximal activity | 50 percentage of maximal activity | 97 percentage of maximal activity | 5 percentage of maximal activity | 3 percentage of maximal activity | 49 percentage of maximal activity | 100 percentage of maximal activity | 44 percentage of maximal activity | 18 percentage of maximal activity | 76 percentage of maximal activity | 102 percentage of maximal activity | 90 percentage of maximal activity | 63 percentage of maximal activity | – | – |
| CC(C)(C)n1nc(Cc2cccc3ccccc23)c2c(N)ncnc21 [NM-PP1] | – | – | – | – | – | – | – | – | – | – | – | – | – | – | – | – | no effect | LTP induction was enabled |

From patent publication US20260263429A1, “INHIBITORS OF CA 2+/CALMODULIN-DEPENDENT PROTEIN KINASE II (CAMKII) THAT DO NOT INHIBIT LONG-TERM POTENTIATION (LTP) INDUCTION AND THERAPEUTIC USES THEREOF” (The Regents of the University of Colorado, A Body Corporate, priority 2023, published 2026)
